Test system: LFS cells
Experiment: poly (I:C) stimulation of LFS cells, STAT1α and IFNβ gene expression
Format: cell-based, human
Settings: poly (I:C) treatment

## poly (I:C)
MDAH041-PC
  STAT1α and IFNβ gene expression: induced
MDAH087-1
  STAT1α and IFNβ gene expression: no induction
MDAH087-10
  STAT1α and IFNβ gene expression: no induction
MDAH087-N
  STAT1α and IFNβ gene expression: induced
MDAH087-PC
  STAT1α and IFNβ gene expression: induced
Immortal MDAH041
  STAT1α and IFNβ gene expression: induced

— patent US20050250137A1, “Molecular targets of cancer and aging” (priority 2002, published 2005)
